Test results as given in ChEMBL document CHEMBL5696442, “Discovery of type II inhibitors of TGFβ-activated kinase 1 (TAK1) and mitogen-activated protein kinase kinase kinase kinase 2 (MAP4K2)” (J Med Chem, 2015).
Calls of active or inactive are those of the source. The calls are words filed in the database; no cut-off is given here.

Assays:
[1] = target: 5'-AMP-activated protein kinase catalytic subunit alpha-2 (Homo sapiens) (UniProt P54646); test: Inhibition of AMPKa2 Lys1 labeling site in human Huh-7 cell lysate at 1 uM by KiNativ Profiling analysis relative to control; type: subcellular
[2] = target: Serine/threonine-protein kinase ATR (Homo sapiens) (UniProt Q13535); test: Inhibition of ATR ATP labeling site in human Huh-7 cell lysate at 1 uM by KiNativ Profiling analysis relative to control; type: subcellular
[3] = target: Cyclin-dependent kinase 17 (Homo sapiens) (UniProt Q00537); test: Inhibition of PCTAIRE2 Lys2 labeling site in human Huh-7 cell lysate at 1 uM by KiNativ Profiling analysis relative to control; type: subcellular
Sequence of Cyclin-dependent kinase 17 (Homo sapiens) (Q00537 whole entry, looked up): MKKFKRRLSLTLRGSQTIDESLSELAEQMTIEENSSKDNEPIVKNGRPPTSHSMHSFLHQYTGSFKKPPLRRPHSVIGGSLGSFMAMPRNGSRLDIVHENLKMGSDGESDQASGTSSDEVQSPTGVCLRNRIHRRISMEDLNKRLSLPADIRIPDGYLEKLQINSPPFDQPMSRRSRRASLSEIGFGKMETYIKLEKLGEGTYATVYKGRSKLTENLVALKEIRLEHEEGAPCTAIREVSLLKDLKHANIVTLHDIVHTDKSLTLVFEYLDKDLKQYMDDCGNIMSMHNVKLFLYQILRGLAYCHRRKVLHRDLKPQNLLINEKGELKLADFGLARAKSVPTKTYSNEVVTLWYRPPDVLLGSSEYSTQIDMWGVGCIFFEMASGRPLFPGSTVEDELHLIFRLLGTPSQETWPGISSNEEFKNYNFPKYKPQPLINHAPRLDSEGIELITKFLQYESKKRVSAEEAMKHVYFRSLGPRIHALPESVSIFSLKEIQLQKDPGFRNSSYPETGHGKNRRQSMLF

[4] = target: Cyclin-dependent kinase 8 (Homo sapiens) (UniProt P49336); test: Inhibition of CDK8 Lys2 labeling site in human Huh-7 cells at 1 uM by KiNativ Profiling analysis relative to control; type: cell-based
[5] = target: Cyclin-dependent kinase 9 (Homo sapiens) (UniProt P50750); test: Inhibition of CDK9 Lys2 labeling site in human Huh-7 cells at 1 uM by KiNativ Profiling analysis relative to control; type: cell-based
[6] = system: Epidermal growth factor receptor (Homo sapiens), P00533 [UNDEFINED MUTATION]; test: Inhibition of EGFR E746-A750del mutant (unknown origin) at 1 uM by Ambit Kinomescan binding assay relative to control
Sequence of Epidermal growth factor receptor (Homo sapiens), P00533 [UNDEFINED MUTATION] (P00533 whole entry, looked up, stated change not applied): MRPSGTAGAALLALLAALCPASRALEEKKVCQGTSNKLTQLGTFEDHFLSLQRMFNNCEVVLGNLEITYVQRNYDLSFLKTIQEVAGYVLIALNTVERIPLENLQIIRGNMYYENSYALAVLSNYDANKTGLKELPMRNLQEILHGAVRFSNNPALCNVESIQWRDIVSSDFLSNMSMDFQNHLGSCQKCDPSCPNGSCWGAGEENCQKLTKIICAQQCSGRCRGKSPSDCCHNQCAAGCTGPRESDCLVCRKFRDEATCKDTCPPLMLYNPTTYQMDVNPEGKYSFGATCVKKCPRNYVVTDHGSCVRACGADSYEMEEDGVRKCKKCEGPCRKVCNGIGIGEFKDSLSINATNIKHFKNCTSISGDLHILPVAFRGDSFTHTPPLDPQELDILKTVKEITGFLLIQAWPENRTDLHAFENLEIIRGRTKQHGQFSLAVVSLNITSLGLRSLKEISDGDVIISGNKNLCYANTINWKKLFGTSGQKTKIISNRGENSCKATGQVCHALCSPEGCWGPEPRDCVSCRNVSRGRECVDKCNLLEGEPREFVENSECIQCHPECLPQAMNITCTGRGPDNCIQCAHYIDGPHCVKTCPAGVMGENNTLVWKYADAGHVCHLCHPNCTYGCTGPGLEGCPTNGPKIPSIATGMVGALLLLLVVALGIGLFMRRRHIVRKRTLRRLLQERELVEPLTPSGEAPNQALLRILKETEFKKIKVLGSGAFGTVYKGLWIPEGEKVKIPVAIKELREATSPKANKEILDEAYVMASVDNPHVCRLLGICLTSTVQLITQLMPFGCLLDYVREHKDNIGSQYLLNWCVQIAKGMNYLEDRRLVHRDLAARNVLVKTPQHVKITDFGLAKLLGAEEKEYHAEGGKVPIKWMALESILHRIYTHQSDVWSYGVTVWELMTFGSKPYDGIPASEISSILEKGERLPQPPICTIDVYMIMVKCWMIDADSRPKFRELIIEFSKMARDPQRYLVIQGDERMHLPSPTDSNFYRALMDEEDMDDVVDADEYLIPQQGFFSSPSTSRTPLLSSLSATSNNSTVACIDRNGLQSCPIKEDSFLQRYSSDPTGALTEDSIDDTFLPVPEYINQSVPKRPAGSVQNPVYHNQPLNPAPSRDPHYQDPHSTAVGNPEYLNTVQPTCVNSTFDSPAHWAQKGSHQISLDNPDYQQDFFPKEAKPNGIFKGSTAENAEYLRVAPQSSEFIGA

[7] = system: Epidermal growth factor receptor (Homo sapiens), P00533 [L861Q]; test: Inhibition of EGFR L861Q mutant (unknown origin) at 1 uM by Ambit Kinomescan binding assay relative to control
[8] = target: G protein-coupled receptor kinase 4 (Homo sapiens) (UniProt P32298); test: Inhibition of GRK4 (unknown origin) at 1 uM by Ambit Kinomescan binding assay relative to control; values are per cent of control
[9] = target: LIM domain kinase 2 (Homo sapiens) (UniProt P53671); test: Inhibition of LIMK2 (unknown origin) at 1 uM by Ambit Kinomescan binding assay relative to control; values are per cent of control
[10] = target: Phosphatidylinositol 4,5-bisphosphate 3-kinase catalytic subunit gamma isoform (Homo sapiens) (UniProt P48736); test: Inhibition of PIK3CG (unknown origin) at 1 uM by Ambit Kinomescan binding assay relative to control; values are per cent of control
[11] = target: Eukaryotic translation initiation factor 2-alpha kinase 1 (Homo sapiens) (UniProt Q9BQI3); test: Inhibition of EIF2AK1 (unknown origin) at 1 uM by Ambit Kinomescan binding assay relative to control; values are per cent of control
[12] = target: T1, Mitogen-activated protein kinase kinase kinase 7 (Homo sapiens) (UniProt O43318); test: Inhibition of TAK1 Lys2 labeling site in human A-375 cells at 5 uM by KiNativ Profiling analysis relative to control; type: cell-based
T1 sequence (whole entry): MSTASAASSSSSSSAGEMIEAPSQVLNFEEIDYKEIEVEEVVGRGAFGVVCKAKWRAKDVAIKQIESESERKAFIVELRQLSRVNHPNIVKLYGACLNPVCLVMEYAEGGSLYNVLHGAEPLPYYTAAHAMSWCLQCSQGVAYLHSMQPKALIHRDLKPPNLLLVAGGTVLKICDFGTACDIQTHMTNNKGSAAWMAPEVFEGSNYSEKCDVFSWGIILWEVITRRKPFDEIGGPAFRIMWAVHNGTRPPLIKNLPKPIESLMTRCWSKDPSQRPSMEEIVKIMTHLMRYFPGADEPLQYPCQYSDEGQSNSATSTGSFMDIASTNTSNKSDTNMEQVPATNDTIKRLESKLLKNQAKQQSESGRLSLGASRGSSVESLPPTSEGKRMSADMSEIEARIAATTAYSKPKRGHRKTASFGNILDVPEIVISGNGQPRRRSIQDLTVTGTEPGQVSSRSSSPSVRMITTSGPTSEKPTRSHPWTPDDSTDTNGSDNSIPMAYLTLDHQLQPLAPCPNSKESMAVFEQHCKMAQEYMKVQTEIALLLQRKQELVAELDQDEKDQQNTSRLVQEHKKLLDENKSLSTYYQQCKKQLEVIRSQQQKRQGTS

[13] = system: Fibroblast growth factor receptor 3 (Homo sapiens), P22607 [G697C]; test: Inhibition of FGFR3 G697C mutant (unknown origin) at 10 uM by Ambit Kinomescan binding assay relative to control
Sequence of Fibroblast growth factor receptor 3 (Homo sapiens), P22607 [G697C] (P22607 whole entry G697C): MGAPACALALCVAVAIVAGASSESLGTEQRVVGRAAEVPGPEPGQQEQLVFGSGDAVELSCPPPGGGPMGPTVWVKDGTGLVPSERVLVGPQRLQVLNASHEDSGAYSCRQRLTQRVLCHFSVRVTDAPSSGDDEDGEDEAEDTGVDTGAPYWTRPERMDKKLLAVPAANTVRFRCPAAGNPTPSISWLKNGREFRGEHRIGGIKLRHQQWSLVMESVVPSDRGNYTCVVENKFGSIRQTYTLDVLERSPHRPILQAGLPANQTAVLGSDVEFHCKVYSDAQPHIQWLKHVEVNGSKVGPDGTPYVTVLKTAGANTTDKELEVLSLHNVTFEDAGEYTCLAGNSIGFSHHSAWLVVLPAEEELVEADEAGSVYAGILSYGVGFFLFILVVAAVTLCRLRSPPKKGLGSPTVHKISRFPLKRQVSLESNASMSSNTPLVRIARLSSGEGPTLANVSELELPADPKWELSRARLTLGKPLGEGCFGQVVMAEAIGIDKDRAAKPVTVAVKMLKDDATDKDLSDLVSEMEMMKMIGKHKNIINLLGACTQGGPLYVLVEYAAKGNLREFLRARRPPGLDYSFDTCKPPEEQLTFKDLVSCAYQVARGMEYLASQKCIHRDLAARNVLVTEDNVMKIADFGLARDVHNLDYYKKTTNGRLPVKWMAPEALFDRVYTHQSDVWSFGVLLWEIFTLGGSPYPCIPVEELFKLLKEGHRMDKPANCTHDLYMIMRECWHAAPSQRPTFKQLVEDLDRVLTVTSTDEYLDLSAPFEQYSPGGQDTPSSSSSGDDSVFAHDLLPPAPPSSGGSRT

[14] = target: Platelet-derived growth factor receptor alpha (Homo sapiens) (UniProt P16234); test: Inhibition of PDGFRA (unknown origin) at 10 uM by Ambit Kinomescan binding assay relative to control
[15] = target: Serine/threonine-protein kinase pim-1 (Homo sapiens) (UniProt P11309); test: Inhibition of PIM1 (unknown origin) at 10 uM by Ambit Kinomescan binding assay
[16] = target: Protein kinase C epsilon type (Homo sapiens) (UniProt Q02156); test: Inhibition of PRKCE (unknown origin) at 10 uM by Ambit Kinomescan binding assay relative to control
[17] = target: Serine/threonine-protein kinase 38-like (Homo sapiens) (UniProt Q9Y2H1); test: Inhibition of NDR2 Lys1 labeling site harbouring KDTGHIYAMKILR in human A-375 cells at 0.5 uM by KiNativ Profiling analysis relative to control; type: cell-based
[18] = target: Tyrosine-protein kinase ABL (Homo sapiens) (UniProt P00519+P42684); test: Inhibition of ABL1/2 ACT labeling site in human Huh-7 cells at 10 uM by KiNativ Profiling analysis relative to control; type: cell-based
Sequence of Tyrosine-protein kinase ABL (Homo sapiens) (P00519 whole entry, looked up): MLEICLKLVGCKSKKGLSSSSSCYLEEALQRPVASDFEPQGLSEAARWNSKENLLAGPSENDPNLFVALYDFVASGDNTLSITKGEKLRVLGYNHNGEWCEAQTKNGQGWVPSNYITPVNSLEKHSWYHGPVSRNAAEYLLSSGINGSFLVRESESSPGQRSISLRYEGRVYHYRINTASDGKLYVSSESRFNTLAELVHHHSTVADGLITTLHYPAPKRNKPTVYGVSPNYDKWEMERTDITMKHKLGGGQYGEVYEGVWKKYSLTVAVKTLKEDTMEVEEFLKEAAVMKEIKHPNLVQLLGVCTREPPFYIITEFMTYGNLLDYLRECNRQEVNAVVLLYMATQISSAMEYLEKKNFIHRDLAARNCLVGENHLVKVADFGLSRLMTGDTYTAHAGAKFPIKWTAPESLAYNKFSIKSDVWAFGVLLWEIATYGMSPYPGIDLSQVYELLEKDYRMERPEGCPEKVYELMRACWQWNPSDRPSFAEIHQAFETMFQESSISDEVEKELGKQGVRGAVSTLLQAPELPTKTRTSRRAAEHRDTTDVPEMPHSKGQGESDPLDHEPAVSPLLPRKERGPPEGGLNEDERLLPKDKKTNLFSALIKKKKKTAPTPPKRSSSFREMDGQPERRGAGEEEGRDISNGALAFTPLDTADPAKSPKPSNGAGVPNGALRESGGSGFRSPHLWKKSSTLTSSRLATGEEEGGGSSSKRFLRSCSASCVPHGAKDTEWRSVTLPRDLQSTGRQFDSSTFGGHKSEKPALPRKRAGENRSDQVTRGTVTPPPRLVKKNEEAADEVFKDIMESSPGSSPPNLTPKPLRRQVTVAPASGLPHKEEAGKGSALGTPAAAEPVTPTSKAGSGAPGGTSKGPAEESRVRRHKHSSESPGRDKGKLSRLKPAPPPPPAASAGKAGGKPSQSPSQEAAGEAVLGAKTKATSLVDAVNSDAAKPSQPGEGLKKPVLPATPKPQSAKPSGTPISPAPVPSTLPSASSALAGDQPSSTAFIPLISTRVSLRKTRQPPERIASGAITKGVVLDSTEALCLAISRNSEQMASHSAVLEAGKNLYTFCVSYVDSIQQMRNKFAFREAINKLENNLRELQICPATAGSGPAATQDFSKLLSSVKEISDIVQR
Sequence of Tyrosine-protein kinase ABL (Homo sapiens) (P42684 whole entry, looked up): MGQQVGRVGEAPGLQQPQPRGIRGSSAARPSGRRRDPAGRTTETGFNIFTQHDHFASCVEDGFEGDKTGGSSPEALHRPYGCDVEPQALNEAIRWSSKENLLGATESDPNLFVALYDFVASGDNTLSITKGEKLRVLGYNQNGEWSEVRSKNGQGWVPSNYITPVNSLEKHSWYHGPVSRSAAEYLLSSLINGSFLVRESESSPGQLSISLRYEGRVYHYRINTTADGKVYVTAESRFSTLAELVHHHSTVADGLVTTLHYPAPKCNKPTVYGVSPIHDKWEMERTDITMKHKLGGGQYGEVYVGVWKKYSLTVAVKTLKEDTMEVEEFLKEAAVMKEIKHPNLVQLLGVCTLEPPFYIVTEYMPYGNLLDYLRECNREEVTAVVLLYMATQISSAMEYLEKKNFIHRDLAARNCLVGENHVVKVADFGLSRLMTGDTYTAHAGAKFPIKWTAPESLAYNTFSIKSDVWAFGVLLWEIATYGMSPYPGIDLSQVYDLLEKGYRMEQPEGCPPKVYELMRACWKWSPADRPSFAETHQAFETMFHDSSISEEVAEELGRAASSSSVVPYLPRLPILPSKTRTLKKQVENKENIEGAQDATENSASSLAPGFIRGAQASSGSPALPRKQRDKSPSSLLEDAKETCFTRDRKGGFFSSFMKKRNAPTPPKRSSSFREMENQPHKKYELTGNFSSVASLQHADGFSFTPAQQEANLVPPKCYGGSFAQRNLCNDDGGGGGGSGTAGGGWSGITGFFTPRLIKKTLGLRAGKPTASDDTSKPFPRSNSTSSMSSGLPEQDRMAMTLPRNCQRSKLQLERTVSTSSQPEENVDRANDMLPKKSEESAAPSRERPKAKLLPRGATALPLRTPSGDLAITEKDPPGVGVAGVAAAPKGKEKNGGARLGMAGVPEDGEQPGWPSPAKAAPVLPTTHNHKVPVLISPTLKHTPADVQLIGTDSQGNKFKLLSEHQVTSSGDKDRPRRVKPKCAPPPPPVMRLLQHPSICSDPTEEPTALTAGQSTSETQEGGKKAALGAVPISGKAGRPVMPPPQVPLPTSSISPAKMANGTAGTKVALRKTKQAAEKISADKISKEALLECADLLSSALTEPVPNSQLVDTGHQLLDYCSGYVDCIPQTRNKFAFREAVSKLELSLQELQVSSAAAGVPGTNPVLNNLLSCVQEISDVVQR

[19] = target: Serine/threonine-protein kinase 10 (Homo sapiens) (UniProt O94804); test: Inhibition of LOK K2 labeling site harbouring DLKAGNVLMTLEGDIR in human Huh-7 cells at 10 uM by KiNativ Profiling analysis relative to control; type: cell-based

CNc1cc(Oc2cc(C(=O)Nc3cc(N4CCN(C)CC4)cc(C(F)(F)F)c3)ccc2C)ncn1
inhibition [1]: 8.7%
inhibition [2]: 5.1%
inhibition [3]: -2.1%
inhibition [4]: 25.8%
inhibition [5]: 22.4%

CCN1CCN(Cc2ccc(NC(=O)c3ccc(C)c(/C=C/c4cnc5[nH]ccc5c4OC)c3)cc2C(F)(F)F)CC1
inhibition [6]: 0.7%
inhibition [7]: 0.25%
residual activity [8]: 40%
residual activity [9]: 26%
residual activity [10]: 100%
residual activity [11]: 100%

CCN1CCN(Cc2ccc(NC(=O)c3ccc(C)c(Oc4ccnc5[nH]ccc45)c3)cc2C(F)(F)F)CC1
inhibition [12]: > 95%
inhibition [13]: 16%
inhibition [14]: 0.6%
inhibition [15]: inactive
inhibition [16]: 20%
inhibition [17]: 31.6%
inhibition [18]: 98.4%
inhibition [19]: 13.5%
